In ChEMBL document CHEMBL4130359, “Indazole-based ligands for estrogen-related receptor α as potential anti-diabetic agents” (Eur J Med Chem, 2017):
pEC50: −log10 of the molar value. The source made the active and inactive calls. The calls are words filed in the database; no cut-off is given here.

Tests used:
Rattus norvegicus [1] = test: Antidiabetic activity in Zucker rat sub-chronic fa/fa prediabetic model assessed as decrease in plasma glucose AUC (0 to 120 mins) at 10 mg/kg, po qd during 10 days study by OGTT relative to control; assay type: functional; design: scale not given: the % may be the effect or the level left
[2] = molecular target: Oxysterols receptor LXR-beta (Homo sapiens, UniProt P55055); test: Agonist activity at recombinant GST-tagged human LXRbeta LBD assessed as fluorescein-labeled coactivator peptide recruitment preincubated with enzyme followed by coactivator addition by LanthaScreen TR-FRET assay
[3] = Clearance in CD-1 mouse at 5 mg/kg, iv by LC-MS analysis; assay type: ADME, organism-based; conditions: in vivo
[4] = Clearance in Sprague-Dawley rat at 2 mg/kg, iv by LC-MS analysis; assay type: ADME, organism-based; conditions: in vivo
[5] = Cmax in CD-1 mouse at 20 mg/kg administered via oral gavage by LC-MS analysis; assay type: ADME, organism-based; design: dose 20 mg/kg, route oral; conditions: in vivo
[6] = AUC (0 to 24 hrs) in ob/ob mouse at 18 mg/kg administered via oral gavage by LC-MS analysis; assay type: ADME, organism-based; design: dose 18 mg/kg, time < 24 hr, route oral; conditions: in vivo
Rattus norvegicus [7] = test: Antidiabetic activity in Zucker rat sub-chronic fa/fa prediabetic model assessed as fasting blood glucose level at 3 mg/kg, po qd for 31 days measured on day 29 post dose (reference value: 163 +/- 9.2 mg/dl); assay type: functional
Rattus norvegicus [8] = test: Antidiabetic activity in Zucker rat sub-chronic fa/fa prediabetic model assessed as reduction in blood glucose AUC (0 to 120 min) at 10 mg/kg, po qd for 31 days measured on day 29 post dose by OGTT relative to control; assay type: functional; design: scale not given: the % may be the effect or the level left
Rattus norvegicus [9] = test: Antidiabetic activity in Zucker rat sub-chronic fa/fa prediabetic model assessed as blood glucose AUC (0 to 120 min) at 3 mg/kg, po qd for 31 days measured on day 29 post dose by OGTT (reference value: 41471 +/- 2451 mg.min/dL); assay type: functional
[10] = Cmax in Zucker rat sub-chronic fa/fa prediabetic model at 1 mg/kg, po qd for 26 days measured on day 26 post last dose; assay type: ADME, organism-based; design: dose 1 mg/kg, route oral; conditions: in vivo
Rattus norvegicus [11] = test: Toxicity in Zucker rat sub-chronic fa/fa prediabetic model assessed as epididymal white adipose tissue weight at 50 mg/kg, po qd for 31 days measured on day 32 (reference value: 13.9 +/- 0.6 g); assay type: organism-based; conditions: in vivo, 744 h
Rattus norvegicus [12] = test: Toxicity in Zucker rat sub-chronic fa/fa prediabetic model assessed as triglyceride level per gram liver at 50 mg/kg, po qd for 31 days measured on day 32 (reference value: 163.4 +/- 8.3 mg); assay type: organism-based; conditions: in vivo, 744 h
Rattus norvegicus [13] = test: Toxicity in Zucker rat sub-chronic fa/fa prediabetic model assessed as serum triglyceride level at 3 mg/kg, po qd for 31 days measured on day 32 (reference value: 1382 +/- 268 mg/dl); assay type: organism-based; conditions: in vivo, 744 h
Rattus norvegicus [14] = test: Toxicity in Zucker rat sub-chronic fa/fa prediabetic model assessed as serum AST level at 10 mg/kg, po qd for 31 days measured on day 32 (reference value: 187 +/- 37 U/L); assay type: organism-based; conditions: in vivo, 744 h
Rattus norvegicus [15] = test: Toxicity in Zucker rat sub-chronic fa/fa prediabetic model assessed as serum AST level at 50 mg/kg, po qd for 31 days measured on day 32 (reference value: 187 +/- 37 U/L); assay type: organism-based; conditions: in vivo, 744 h
Rattus norvegicus [16] = test: Toxicity in Zucker rat sub-chronic fa/fa prediabetic model assessed as serum BUN level at 10 mg/kg, po qd for 31 days measured on day 32 (reference value: 28.3 +/- […]); assay type: organism-based; conditions: in vivo, 744 h
[17] = Drug uptake in liver of Zucker rat sub-chronic fa/fa prediabetic model at 12.5 mg/kg, po qd for 11 days; assay type: ADME, organism-based; conditions: read-out: Drug uptake
[18] = Drug uptake in heart of Zucker rat sub-chronic fa/fa prediabetic model at 12.5 mg/kg, po qd for 11 days; assay type: ADME, organism-based; conditions: read-out: Drug uptake
[19] = Drug uptake in muscle of Zucker rat sub-chronic fa/fa prediabetic model at 12.5 mg/kg, po qd for 11 days; assay type: ADME, organism-based, Muscle tissue; conditions: read-out: Drug uptake
Rattus norvegicus [20] = test: Antidiabetic activity in Zucker rat sub-chronic fa/fa prediabetic model assessed as increase in serum adiponectin level at 50 mg/kg, po qd for 4 days by ELISA relative to control; assay type: functional
Rattus norvegicus [21] = test: Toxicity in […] model assessed as serum ALT level at 3 mg/kg, po qd for 31 days measured on day 32 (reference value: 127 +/- 9 U/L); assay type: organism-based; conditions: in vivo, 744 h
Rattus norvegicus [22] = test: Toxicity in […] chronic ob/ob model assessed as decrease in epididymal white adipose tissue weight at administered po qd for 31 days measured on day 32; assay type: organism-based; conditions: in vivo, 744 h
Rattus norvegicus [23] = test: Increase in IDH3A mRNA expression in epididymal white adipose tissue of Zucker rat sub-chronic fa/fa prediabetic model at 10 mg/kg, po qd for 15 days by RT-PCR method; assay type: functional, organism-based
Rattus norvegicus [24] = test: Effect on IDH3B gene expression in epididymal white adipose tissue of Zucker rat sub-chronic fa/fa prediabetic model at 10 mg/kg, po qd for 15 days by microarray analysis relative to control; assay type: functional
Rattus norvegicus [25] = test: Effect on DLST gene expression in epididymal white adipose tissue of Zucker rat sub-chronic fa/fa prediabetic model at 10 mg/kg, po qd for 15 days by microarray analysis relative to control; assay type: functional
Rattus norvegicus [26] = test: Effect on ATP5C1 gene expression in epididymal white adipose tissue of Zucker rat sub-chronic fa/fa prediabetic model at 10 mg/kg, po qd for 15 days by microarray analysis relative to control; assay type: functional
Rattus norvegicus [27] = test: Effect on NDUFB9 gene expression in epididymal white adipose tissue of Zucker rat sub-chronic fa/fa prediabetic model at 10 mg/kg, po qd for 15 days by microarray analysis relative to control; assay type: functional
Rattus norvegicus [28] = test: Effect on NFKB1 gene expression in epididymal white adipose tissue of Zucker rat sub-chronic fa/fa prediabetic model at 10 mg/kg, po qd for 15 days by microarray analysis relative to control; assay type: functional
Rattus norvegicus [29] = test: Effect on PIK3R6 gene expression in epididymal white adipose tissue of Zucker rat sub-chronic fa/fa prediabetic model at 10 mg/kg, po qd for 15 days by microarray analysis relative to control; assay type: functional
Rattus norvegicus [30] = test: Effect on BAD gene expression in epididymal white adipose tissue of Zucker rat sub-chronic fa/fa prediabetic model at 10 mg/kg, po qd for 15 days by microarray analysis relative to control; assay type: functional
Rattus norvegicus [31] = test: Effect on STAT3 gene expression in epididymal white adipose tissue of Zucker rat sub-chronic fa/fa prediabetic model at 10 mg/kg, po qd for 15 days by microarray analysis relative to control; assay type: functional
Rattus norvegicus [32] = test: Effect on IGFBP4 gene expression in epididymal white adipose tissue of Zucker rat sub-chronic fa/fa prediabetic model at 10 mg/kg, po qd for 15 days by microarray analysis relative to control; assay type: functional
Rattus norvegicus [33] = test: Effect on Ckmt1 gene expression in epididymal white adipose tissue of Zucker rat sub-chronic fa/fa prediabetic model at 10 mg/kg, po qd for 15 days by microarray analysis relative to control; assay type: functional

Oxysterols receptor LXR-beta, sequence (P55055 whole entry, the tested form may be a part): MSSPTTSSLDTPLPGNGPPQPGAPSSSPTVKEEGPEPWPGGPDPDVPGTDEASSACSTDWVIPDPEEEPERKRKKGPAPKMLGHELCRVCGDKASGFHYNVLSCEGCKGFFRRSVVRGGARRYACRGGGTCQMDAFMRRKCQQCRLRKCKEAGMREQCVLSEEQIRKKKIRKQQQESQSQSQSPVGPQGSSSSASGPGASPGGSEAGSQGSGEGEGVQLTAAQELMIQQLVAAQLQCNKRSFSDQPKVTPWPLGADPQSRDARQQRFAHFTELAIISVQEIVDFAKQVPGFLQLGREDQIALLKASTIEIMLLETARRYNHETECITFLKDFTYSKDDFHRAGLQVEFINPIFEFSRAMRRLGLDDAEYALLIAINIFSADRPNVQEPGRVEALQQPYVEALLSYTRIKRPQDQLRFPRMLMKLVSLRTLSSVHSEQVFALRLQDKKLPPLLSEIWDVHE

CN1CC[C@@H](N2C(=O)S/C(=C\c3ccc4c(cnn4Cc4ccc(Cl)cc4C(F)(F)F)c3)C2=O)[C@H](F)C1
Activity (Rattus norvegicus [1]): -46%
pEC50 [2]: < 5.00
clearance [3]: 10 mL/min/kg
clearance [4]: 23 mL/min/kg
Cmax [5]: 2000 ng/mL
AUC(0-t) at 24 h [6]: 6230 ng·h/mL
Activity (Rattus norvegicus [7]): 118 mg/dL
Activity (Rattus norvegicus [8]): 55%
Activity (Rattus norvegicus [9]): 26306 mg·min/dL
Cmax [10]: 316 ng/mL
Activity (Rattus norvegicus [11]): 19.3 g
Activity (Rattus norvegicus [12]): 69.4 mg
Activity (Rattus norvegicus [13]): 584 mg/dL
Activity (Rattus norvegicus [14]): 98 U/L
Activity (Rattus norvegicus [15]): 87 U/L
Activity (Rattus norvegicus [16]): 26.9 mg/dL
concentration at 264 h [17]: 12400 ng/g
concentration at 264 h [18]: 1700 ng/g
concentration at 264 h [19]: 2820 ng/g
fold change (FC) (Rattus norvegicus [20]): 1.9
Activity (Rattus norvegicus [21]): 172 U/L
Activity (Rattus norvegicus [22]): Dose-dependent effect
Activity (Rattus norvegicus [23]): Active
fold change (FC) (Rattus norvegicus [24]): 1.655
fold change (FC) (Rattus norvegicus [25]): 1.352
fold change (FC) (Rattus norvegicus [26]): 1.239
fold change (FC) (Rattus norvegicus [27]): 1.214
fold change (FC) (Rattus norvegicus [28]): -1.254
fold change (FC) (Rattus norvegicus [29]): -1.276
fold change (FC) (Rattus norvegicus [30]): -1.216
fold change (FC) (Rattus norvegicus [31]): -1.405
fold change (FC) (Rattus norvegicus [32]): -1.825
fold change (FC) (Rattus norvegicus [33]): -1.374
